Where no end group is shown, it is not given here.
Experiments:
Assay type in all cases: cell-based
[1] = system: Escherichia coli strain DB3.1; assay: agar diffusion assay (zone of inhibition)
Experimental: Agar diffusion assay. In the agar diffusion assay the microorganisms were exposed immovable to the potential bio-active substance by inclusion in an agar containing medium. The use of a nutrient limited minimal medium led first to a limitation of the development of the bacteria. The test substances were dependent on the application form pipetted into the punched recess in the agar or placed with a test sample into the punched recess in the agar and spread out during incubation time by diffusion into the agar. After incubation the nutrient limitation of the bacteria was revoked. The determination of the bioactivity was performed by measuring the diameter of the raised zone of inhibition surrounding the recess.
Therefore, Escherichia coli strain DB3.1 (Invitrogen, Cat. No. 11782-018) was used. E. coli was streaked from a glycerol stock onto a Brain Heart Infusion (BHI) agar plate (3.7% (w/v) BHI Bouillon, 1.5% (w/v) Agar) and was grown overnight at 37° C. Subsequently one colony was used to inoculate 8 ml of TSB medium (Caso Bouillon 3% (w/v)) without any antibiotics in a culture tube which was then incubated shaking (120 rpm) over night at 37° C. 50 μl of this pre-culture was used to inoculate again 8 ml of TSB medium (Caso Bouillon 3% (w/v)) without any antibiotics in a fresh culture tube which was then incubated shaking (125 rpm) for 3.5 h at 37° C. The OD600 of the bacterial suspension was then 0.500.
The underlay medium (11% (v/v) 0.1 M sodium phosphate buffer pH 7.2, 1% (v/v) TSB-medium, 0.02% (v/v) Tween, 1% (w/v) agarose in distilled water, pH 7.2), a minimal medium, was liquefied using micro waves and cooled to about 47° C. 10 ml underlay medium with 500 μl bacterial suspension were mixed in a 50 ml falcon tube by slight swirling and then was poured into a petri dish. The cooling time was first 15 min at room temperature and then 30 min at 4° C. Afterwards the recesses for test liquids (diameter 3 mm) and test materials (diameter 6 mm), respectively, were punched out from the underlay medium by using a punching-dye. 5 μl test liquid was pipetted per recess and the test materials were laid into the recess or were slid under the underlay medium, respectively. The lid of the plate was closed by parafilm and the plate was incubated over night at 37° C. The next day, the overlay medium (3.4% (w/v) casein peptone, 0.6% (w/v) soy flour peptone, 0.5% (w/v) di-potassium hydrogen phosphate, 1% (w/v) NaCl, 0.5% (w/v) glucose, 1% (w/v) agarose in distilled water) was liquefied using micro waves and cooled to about 47° C. In every Petri dish 10 ml overlay medium were poured on the underlay medium. After cooling for 5 minutes the plate was closed by the lid and incubated at 37° C. for about 2-3 h. For evaluation, the diameter of the raised zones of inhibition surrounding the recesses was measured.
The potential of the chosen biopolymers to release bio-active hβD2 after coating/mixing them with hβD2, was determined by a screening in the diffusion assay (as described in Example 5). The assay allows a correlation between the released amounts of bio-active molecules and the resulting zone of inhibition surrounding the releasing source. A comparison with the effect of directly applied, defined amounts of hβD2 allows an evaluation of the release potential of the test materials.
In the assay films made of 1% hyaluronic acid and 1% alginic acid, gelatin leaves, gelatinized agarose drops of 1% agarose solution and films of the dried drops were used. Additionally three variants of a polylactide matrix (uncoated, coated with collagen, coated with collagen and chondroitin sulphate) and collagen scaffolds were tested.
The samples were prepared as described in example 5 and treated with 10 μg hβD2. For the comparison between the effect of directly applied hβD2 amounts and the effect of hβD2-coated samples a standard series for 0.1, 1, 5 and 10 μg hβD2 was performed. The control was formed by the 0.01% acetic acid. […]

[2] = system: Candida albicans ATCC 24433; assay: micro-dilution assay (MBC, LD90)
Experimental: (§1) The anti-bacterial activity of hβD2 was tested by a micro-dilution assay. Bacteria and fungi were streaked from a glycerol stock onto a Brain Heart Infusion (BHI) agar plate (3.7% w/v BHI Bouillon, 1.5% w/v Agar), grown overnight at 37° C. and 30° C., respectively and subsequently used to inoculate 40 ml of 3.7% w/v BHI Bouillon without any antibiotics in 100 ml flasks. Fresh cells were harvested by centrifugation at 16000 rpm for 10 min and washed twice with 10 mM sodium phosphate buffer, pH 7.2. The optical density was adjusted to 10^4 cells/ml. For anti-bacterial testing hβD2 was incubated in one well of a microtiter plate containing 100 μl of the bacterial suspension. Therefore, ten microlitres of hβD2 solution with a range of final concentrations tested from 0.0125 up to and including 100 mg/l was added to the bacterial suspension and incubated at 37° C. and 30° C., respectively for 2 h before colony forming units were determined. Colony forming units (CFU) were determined after plating 100 μl of a 1:100 dilution of the bacterial suspension on petri dishes with BHI medium and incubating them overnight at 37° C. For every group of the hβD2 added samples and the controls, 5 independent anti-bacterial assays were performed. A control (NC) of bacterial growth was examined for every independent assay. The number of CFU on the control (consisting of a single petri dish) was set to 0% bactericidal activity. The reduction in the CFU resulting from the anti-bacterial activity of hβD2 was related to the absolute CFU of the control within every independent assay. This value, given as a percentage of the bacterial “killing” activity, was used to describe the antibacterial activity. This kind of normalisation of the antibacterial data was performed for every experimental group.
(§2) The antibacterial activity of hβD2 were given either as minimum bactericidal concentration (MBC), i.e., the minimum concentration of hβD2 in μg/ml which is required to kill 99.9% of the bacteria or fungi or as lethal dose (LD90), i.e., the concentration of hβD2 in μg/ml which is lethal for 90% of bacteria or fungi.

[3] = system: Acinetobacter Genosp. 11 ATCC 11171; assay: micro-dilution assay (MBC, LD90)
Experimental: as §1, §2

[4] = system: Pseudomonas aeruginosa ATCC 10145; assay: micro-dilution assay (MBC, LD90)
Experimental: as §1, §2

[5] = system: Pseudomonas aeruginosa CF 509 mr (wild-type); assay: micro-dilution assay (MBC, LD90)
Experimental: as §1, §2

[6] = system: Staphylococcus aureus (MRSA 355) (wild-type); assay: micro-dilution assay (MBC, LD90)
Experimental: as §1, §2

[7] = system: Candida albicans C.a 39 (wild-type); assay: micro-dilution assay (MBC, LD90)
Experimental: as §1, §2

[8] = system: Staphylococcus aureus ATCC 33593 (MRSA); assay: micro-dilution assay (MBC, LD90)
Experimental: as §1, §2

## human β-defensin-2 (GIGDPVTCLKSGAICHPVFCPRRYKQIGTCGLPGTKCCKKP; ends and bridges not checked; cysteine pairing not given here) [hβD2, recombinant hβD2]
[1]; 0.1 μg hβD2 directly applied
  diameter of zone of inhibition: 6 mm
[1]; 1 μg hβD2 directly applied
  diameter of zone of inhibition: 9 mm
[1]; 5 μg hβD2 directly applied
  diameter of zone of inhibition: 12 mm
[1]; 10 μg hβD2 directly applied
  diameter of zone of inhibition: 15 mm
[1]; 10 μg hβD2 on alginic acid film
  formation of a zone of inhibition: did not exhibit the formation of a zone of inhibition
[1]; 10 μg hβD2 on hyaluronic acid film
  formation of a zone of inhibition: did not exhibit the formation of a zone of inhibition
[2]
  LD 90 = μg/ml 90% killing: 3.125 µg/mL
  MBC = μg/ml 99.9% killing: 25 µg/mL
[3]
  LD 90 = μg/ml 90% killing: 0.39 µg/mL
  MBC = μg/ml 99.9% killing: 3.125 µg/mL
[4]
  LD 90 = μg/ml 90% killing: 6.25 µg/mL
  MBC = μg/ml 99.9% killing: 12.5 µg/mL
[5]
  LD 90 = μg/ml 90% killing: 12.5 µg/mL
  MBC = μg/ml 99.9% killing: 25 µg/mL
[6]
  LD 90 = μg/ml 90% killing: 25 µg/mL
  MBC = μg/ml 99.9% killing: 100 µg/mL
[7]
  LD 90 = μg/ml 90% killing: 12.5 µg/mL
  MBC = μg/ml 99.9% killing: 50 µg/mL
[8]
  LD 90 = μg/ml 90% killing: 100 µg/mL
  MBC = μg/ml 99.9% killing: >100 µg/mL

Source: patent US20110311601A1, “ANTIMICROBIAL MEDICAL DEVICES” (priority 2010, published 2011)
